Assay results as given in article PMC12070228, “Investigations of Enteric-Coated Tablet Propyl Gallate-Induced Nephrotoxicity in Beagles as well as Human and Dog Renal Proximal Tubule Epithelial Cells” (ACS Pharmacology & Translational Science, 2025).

Tests used:
[1] = PG pharmacokinetics in healthy volunteers, clinical study NCT03362593 (validated LC-MS/MS); assay type: in vivo; details: human, plasma, oral EC MEDI7219 tablets, PG 200, 400 or 800 mg
Experimental: The total run time was 5.5 min.
The targeted quantitation of PG and phase-I/II metabolites was conducted using peak area ratio of analytes and internal standards in MultiQuant software (SCIEX).
Healthy volunteers participating in the clinical study NCT03362593 received single or multiple ascending doses of MEDI7219 tablets. Healthy volunteers received EC MEDI7219 tablets containing 200, 400, or 800 mg PG per tablet. The clinical plasma samples were analyzed using the validated method described above. […] After oral administration of tablets containing PG, the T max of PG was reached around 3–4 h postdose.

[2] = test system: human RPTECs; assay: Cell Titer Glo cell viability assay; assay type: cell-based; details: RPTEC, 48 h exposure, estimated
Experimental: (§1) Frozen RPTECs vials were removed from liquid nitrogen storage and placed in a 37 °C water bath until the contents were completely thawed. The cells were gently resuspended and dispensed into a cell culture flask at a seeding density of ∼7500 cells/cm^2. The flask was placed in a 37 °C, 5% CO2 incubator. Cell cultures were given fresh medium the following morning and then every other day until the cell culture was approximately 90% confluent. When the cell culture was 90% confluent, medium was removed and the cells were rinsed with warmed PBS. Cells were harvested and split into new flasks based on a cell density of 7500 cells/cm^2. Cells were incubated at 37 °C for 3 days, with fresh medium added each day. Cells were harvested and diluted with growth medium to a density of 200,000 cells/mL. 100 μL of cell suspension per well (20,000 cells/well) was added to a clear-bottom 96-well microplate for luminescence assays. The plated cells were incubated in the 37 °C incubator for 3 days.
(§2) Each test compound (PG, GA, 4OMPG and 4OMGA) was initially reconstituted using DMSO at a concentration of 250 mg/mL. Serial dilutions of each compound were performed to reach concentrations of 4000 μM, 2000 μM, 1000 μM, 500 μM, 250 μM, 125 μM, 62.5 μM, 31.3 μM using warmed fresh supplemented medium with 0.4% (v/v) DMSO for all concentration levels. 100 μL of media containing the compound solution was added to the cells. Final concentrations of the compounds were 2000 μM, 1000 μM, 500 μM, 250 μM, 125 μM, 62.5 μM, 31.3 μM, 15.7 μM. […]
(§3) Cell media were removed and cells were washed twice with 200 μL of PBS buffer per well. […] The plate was gently shaken and incubated in the dark for 30 min and luminescence was measured using a PerkinElmer VICTOR X3 plate reader. […] Luminescence was measured using a PerkinElmer VICTOR X3 plate reader.
(§4) For cell-based assays, data was normalized to the negative control. Cell viability and GSH level were expressed as Cell viability or GSH level=Luminescence(each well)/Luminescence(average of DMSO negative control)

[3] = test system: dog RPTECs; assay: Cell Titer Glo cell viability assay; assay type: cell-based
Experimental: as §1, §2, §3, §4

[4] = test system: human RPTECs; assay: GSH-Glo glutathione assay; assay type: cell-based
Experimental: as §1
(§5) Each test compound (PG, GA, 4OMPG and 4OMGA) was initially reconstituted using DMSO at a concentration of 250 mg/mL. Serial dilutions of each compound were performed to reach concentrations of 4000 μM, 2000 μM, 1000 μM, 500 μM, 250 μM, 125 μM, 62.5 μM, 31.3 μM using warmed fresh supplemented medium with 0.4% (v/v) DMSO for all concentration levels. 100 μL of media containing the compound solution was added to the cells. Final concentrations of the compounds were 2000 μM, 1000 μM, 500 μM, 250 μM, 125 μM, 62.5 μM, 31.3 μM, 15.7 μM. AZ13599185 (tubulysin, 100 or 500 ng/mL) or cisplatin (30 μg/mL) and buthionine sulfoximine (BSO, 200 μM) were used as positive controls for CTG and GSH assays, respectively. 0.2% (v/v) DMSO in medium was used as the control for both assays, corrsponding to the final cocnetration of DMSO in the well. Three replicates for each compound at each concentration were prepared. Six replicates of positive or negative controls were prepared. Cells were incubated at 37 °C for approximately 48 h.
(§6) Cell media were removed and cells were washed twice with 200 μL of PBS buffer per well. CTG and GSH assay reagents were added to the wells and the assays were performed following the protocols of the Promega assay kits. Briefly, to perform the CTG assay, 100 μL of CTG solution was added into each well. The plate was gently shaken and incubated in the dark for 30 min and luminescence was measured using a PerkinElmer VICTOR X3 plate reader. To perform the GSH assay, luciferin-NT substrate and glutathione S-transferase were mixed into the GSH-GLo solution. 100 μL of the mixed solution was added into each well. The plate was gently shaken and incubated in the dark for at least 30 min. 100 μL of Luciferin Detection Reagent was added per well. The plate was gently shaken and incubated in the dark for at least 15 min. Luminescence was measured using a PerkinElmer VICTOR X3 plate reader.
as §4

[5] = test system: dog RPTECs; assay: GSH-Glo glutathione assay; assay type: cell-based
Experimental: as §1, §5, §6, §4

[6] = test system: beagles; assay: Follow-up 4-week study 003: EC tablets vs PG alone in gelatin capsule, nephrotoxicity; assay type: in vivo, beagle dog; details: dogs, target PG 200 mg/kg/day once daily for 26 days, data not shown
[7] = ~48 h exposure, normalized to DMSO control

CCCOC(=O)c1cc(O)c(O)c(O)c1 [PG, propyl gallate]
Tmax [1]: 3 to 4 h
EC50 [2]: ~1530 µM
EC50 ([3]; Canis lupus familiaris, RPTEC, dog RPTECs, 48 h exposure, estimated): ~46.5 µM
Relative difference in sensitivity between human and dog RPTECs ([3]; human EC50 vs dog EC50, cell viability): ~33 fold
GSH levels at high concentrations ([4]; ~48 h, high concentrations): reduction of GSH levels
Glutathione (GSH) levels [4, 7]: induced
GSH levels at high concentrations ([5]; ~48 h, high concentrations): reduction of GSH levels
Glutathione (GSH) levels [5, 7]: not in dog cells
Nephrotoxicity / kidney injury [6]: did not result in nephrotoxicity
